Measurements from paper PMC11303761 (Nature Communications, 2024).

Experiments:
Assay type in all cases: cell-based
[1] = biological target: β2AR (Homo sapiens, UniProt P07550); test: β-arrestin2 recruitment; details: β2-Tango HTLA; agonist alone or with 100 µM PAGln (Fig 2A, 2C)
[2] = biological target: T1, β1AR (Homo sapiens, UniProt P08588); test: cAMP production in β1-HEK293 cells; details: 100 µM
[3] = biological target: T1, β1AR; test: β-arrestin2 recruitment; details: β1-HTLA cells

T1 sequence (P08588 whole entry): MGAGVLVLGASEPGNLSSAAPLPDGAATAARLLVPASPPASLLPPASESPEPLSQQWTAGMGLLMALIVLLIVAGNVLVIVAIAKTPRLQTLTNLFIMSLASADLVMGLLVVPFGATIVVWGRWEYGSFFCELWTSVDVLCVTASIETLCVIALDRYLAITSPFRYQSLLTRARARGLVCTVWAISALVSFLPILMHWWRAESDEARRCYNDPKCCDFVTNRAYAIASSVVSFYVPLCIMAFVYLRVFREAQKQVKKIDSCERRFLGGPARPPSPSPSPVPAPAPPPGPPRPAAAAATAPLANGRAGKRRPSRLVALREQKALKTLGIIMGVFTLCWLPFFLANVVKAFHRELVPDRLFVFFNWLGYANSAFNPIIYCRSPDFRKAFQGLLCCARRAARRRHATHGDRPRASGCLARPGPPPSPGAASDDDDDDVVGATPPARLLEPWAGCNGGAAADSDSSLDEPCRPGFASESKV
β2AR, sequence (P07550 whole entry): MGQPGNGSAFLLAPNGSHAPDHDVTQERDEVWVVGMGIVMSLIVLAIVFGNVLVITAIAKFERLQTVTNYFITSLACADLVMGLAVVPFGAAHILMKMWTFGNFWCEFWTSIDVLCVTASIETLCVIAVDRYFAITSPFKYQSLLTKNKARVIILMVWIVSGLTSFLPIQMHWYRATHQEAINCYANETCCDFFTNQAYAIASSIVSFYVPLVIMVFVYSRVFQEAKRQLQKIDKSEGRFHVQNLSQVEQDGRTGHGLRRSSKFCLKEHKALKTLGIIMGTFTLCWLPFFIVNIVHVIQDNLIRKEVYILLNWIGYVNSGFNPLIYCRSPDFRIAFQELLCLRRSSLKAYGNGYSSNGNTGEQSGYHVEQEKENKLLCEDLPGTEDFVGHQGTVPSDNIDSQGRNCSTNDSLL

Row | Bmax of β-arrestin2 recruitment [1] | cAMP production by compound alone [2] | effect of PAGln on ISO- or NE-induced β-arrestin2 recruitment [3] | SMILES
1 | 3137 RLU |  |  | NC[C@H](O)c1ccc(O)c(O)c1 [NE, norepinephrine]
2 |  | failed to induce cAMP production | failed to show any significant effect | NC(=O)CC[C@H](NC(=O)Cc1ccccc1)C(=O)O [PAGln, Phenylacetylglutamine]
3 |  | failed to induce cAMP production |  | N[C@@H](Cc1ccccc1)C(=O)O [Phe, phenylalanine]
